The structures appear in SMILES notation.

The target in test [1] is T1, p38 MAPKα isoform (MAPK14) (Homo sapiens, UniProt Q16539).
T1 construct: purchased Life Technologies
The test is described as follows: p38 MAPKα enzyme inhibition (Z-LYTE FRET). The format is biochemical. The conditions noted are these: Table 2B, unit inferred; read-out: p38 MAPKα (Enzyme Profile). The method in brief:
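Activity was measured indirectly as phosphorylation of a MAPKAP-K2-derived FRET peptide. Enzyme (added at 40 ng/mL) was preincubated 2 h at RT with compound (added solutions 40–0.0012 μg/mL).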

In another test the target is T2, p38MAPKγ (MAPK12) (Homo sapiens, UniProt P53778).
T2 construct: purchased Life Technologies
T2 sequence (P53778 1-367): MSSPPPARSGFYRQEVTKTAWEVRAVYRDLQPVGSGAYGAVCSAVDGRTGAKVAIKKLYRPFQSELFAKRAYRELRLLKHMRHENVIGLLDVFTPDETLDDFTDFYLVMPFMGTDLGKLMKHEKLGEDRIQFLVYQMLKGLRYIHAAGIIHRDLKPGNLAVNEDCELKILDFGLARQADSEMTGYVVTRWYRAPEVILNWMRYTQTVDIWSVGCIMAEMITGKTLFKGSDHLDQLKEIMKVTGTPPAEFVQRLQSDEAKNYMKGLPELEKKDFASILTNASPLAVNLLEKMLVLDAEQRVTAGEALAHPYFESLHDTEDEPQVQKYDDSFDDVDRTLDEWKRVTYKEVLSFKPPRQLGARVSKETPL
The test is described as follows: p38 MAPKγ enzyme inhibition (Z-LYTE FRET). The format is biochemical. To be noted: Table 2B, unit inferred; read-out: p38 MAPKγ (Enzyme Profile). In a few lines:
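Enzyme (added at 800 ng/mL) was preincubated 2 h at RT with compound (solutions of 40 to 0.0012 μg/mL), then FRET peptide (8 μM) and ATP (400 μM), both as added, were reacted 1 h at RT. Protease development followed for 1 h; phosphorylation was read as the coumarin/fluorescein emission ratio.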

T1 sequence (Q16539 whole entry, canonical isoform): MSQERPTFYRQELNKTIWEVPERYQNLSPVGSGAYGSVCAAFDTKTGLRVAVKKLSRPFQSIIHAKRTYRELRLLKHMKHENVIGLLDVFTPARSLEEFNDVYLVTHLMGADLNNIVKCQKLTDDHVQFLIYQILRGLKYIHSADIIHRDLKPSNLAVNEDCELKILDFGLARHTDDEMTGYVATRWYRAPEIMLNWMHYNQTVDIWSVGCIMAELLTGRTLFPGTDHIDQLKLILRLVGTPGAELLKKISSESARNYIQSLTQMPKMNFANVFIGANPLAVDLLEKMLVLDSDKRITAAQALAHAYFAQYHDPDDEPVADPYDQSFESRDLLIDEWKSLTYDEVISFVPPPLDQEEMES

With `CC(C)c1cccc(-n2nc(C(C)(C)C)cc2NC(=O)Nc2ccc(OCc3ccnc(Nc4cnccn4)c3)c3ccccc23)c1` [Example 131, 1-(3-(tert-butyl)-1-(3-isopropylphenyl)-1H-pyrazol-5-yl)-3-(4-((2-(pyrazin-2-ylamino)pyridin-4-yl)methoxy)naphthalen-1-yl) urea], the IC50 in test [1] is 14 nM; at p38MAPKγ (MAPK12), greater than 15900 nM.
For `COCCNC(=O)c1cnc(Nc2cc(COc3ccc(NC(=O)Nc4cc(C(C)(C)C)nn4-c4ccc(OC)c(C)c4)c4ccccc34)ccn2)cn1` [Example 132, 5-((4-(((4-(3-(3-(tert-butyl)-1-(4-methoxy-3-methyl-phenyl)-1H-pyrazol-5-yl)ureido)naphthalen-1-yl)oxy)methyl)pyridin-2-yl)amino)-N-(2-methoxyethyl)pyrazine-2-carboxamide], the IC50 in test [1] was 11 nM; at p38MAPKγ (MAPK12) it was greater than 13700 nM.
As to `COc1ccc(-n2nc(C(C)(C)C)cc2NC(=O)Nc2ccc(OCc3ccnc(Nc4cnc(CO)cn4)c3)c3ccccc23)cc1C` [Example 133, 1-(3-(tert-butyl)-1-(4-methoxy-3-methylphenyl)-1H-pyrazol-5-yl)-3-(4-((2-((5-(hydroxymethyl)pyrazin-2-yl)amino)pyridin-4-yl)methoxy)naphthalen-1-yl) urea], the figures for the IC50 (in test [1]; on p38MAPKγ (MAPK12)) were 7.3 nM and 10200 nM, respectively.
Regarding `Cc1ccc(-n2nc(C(C)(C)C)cc2NC(=O)Nc2ccc(OCc3ccnc(Nc4cnc(C(=O)NCCCO)cn4)c3)c3ccccc23)cc1` [Example 134, 5-((4-(((4-(3-(3-(tert-butyl)-1-(p-tolyl)-1H-pyrazol-5-yl)ureido)naphthalen-1-yl)oxy)methyl)pyridin-2-yl)amino)-N-(3-hydroxy-propyl)pyrazine-2-carboxamide], the IC50 in test [1] was 3.8 nM; on p38MAPKγ (MAPK12) it was 35 nM.
Turning to `COc1ccc(-n2nc(C(C)(C)C)cc2NC(=O)Nc2ccc(OCc3ccnc(Nc4cnc(C)c(C)n4)c3)c3ccccc23)cc1C` [Example 135, 1-(3-(tert-butyl)-1-(4-methoxy-3-methylphenyl)-1H-pyrazol-5-yl)-3-(4-((2-((5,6-dimethylpyrazin-2-yl)amino)pyridin-4-yl)methoxy)naphthalen-1-yl) urea], the IC50 in test [1] is 52 nM; at p38MAPKγ (MAPK12), greater than 15200 nM.
For `Cc1ccc(-n2nc(C(C)(C)C)cc2NC(=O)Nc2ccc(OCc3ccnc(Nc4cnc(C(=O)N5CCN(C)CC5)cn4)c3)c3ccccc23)cc1` [Example 136, 1-(3-(tert-butyl)-1-(p-tolyl)-1H-pyrazol-5-yl)-3-(4-((2-((5-(4-methylpiperazine-1-carbonyl)pyrazin-2-yl)amino)pyridin-4-yl)methoxy)naphthalen-1-yl)urea], in that order: less than 0.41 nM and 41 nM.
`Cc1ccc(-n2nc(C(C)(C)C)cc2NC(=O)Nc2ccc(OCc3ccnc(Nc4cnc(C(=O)N5CCCCC5)cn4)c3)c3ccccc23)cc1` [Example 137, 1-(3-(tert-butyl)-1-(p-tolyl)-1H-pyrazol-5-yl)-3-(4-((2-((5-(piperidine-1-carbonyl)pyrazin-2-yl)amino)pyridin-4-yl)methoxy)naphthalen-1-yl)urea]: the IC50 in test [1] was 6 nM; on p38MAPKγ (MAPK12) it was greater than 14100 nM.
Regarding `Cc1ccc(-n2nc(C(C)(C)C)cc2NC(=O)Nc2ccc(OCc3ccnc(Nc4cnc5c(n4)CCCC5)c3)c3ccccc23)cc1` [Example 138, 1-(3-(tert-butyl)-1-(p-tolyl)-1H-pyrazol-5-yl)-3-(4-((2-((5,6,7,8-tetrahydro-quinoxalin-2-yl)amino)pyridin-4-yl)methoxy)naphthalen-1-yl)urea], the IC50 in test [1] is 29 nM; at p38MAPKγ (MAPK12), greater than 15300 nM.
As to `CCc1ncc(Nc2cc(COc3ccc(NC(=O)Nc4cc(C(C)(C)C)nn4-c4ccc(C)cc4)c4ccccc34)ccn2)nc1CC` [Example 139, 1-(3-(tert-butyl)-1-(p-tolyl)-1H-pyrazol-5-yl)-3-(4-((2-((5,6-diethylpyrazin-2-yl)amino)pyridin-4-yl)methoxy)naphthalen-1-yl) urea], the IC50 was 53 nM in test [1] and 1110 nM at p38MAPKγ (MAPK12).
Regarding `CCc1cncc(Nc2cc(COc3ccc(NC(=O)Nc4cc(C(C)(C)C)nn4-c4ccc(OC)c(C)c4)c4ccccc34)ccn2)n1` [Example 140, 1-(3-(tert-butyl)-1-(4-methoxy-3-methylphenyl)-1H-pyrazol-5-yl)-3-(4-((2-((6-ethylpyrazin-2-yl)amino)pyridin-4-yl)methoxy)naphthalen-1-yl)urea], the IC50 in test [1] is 29 nM; at p38MAPKγ (MAPK12), greater than 15200 nM.
Regarding `CCc1cncc(Nc2cc(COc3ccc(NC(=O)Nc4cc(C(C)(C)C)nn4-c4cccc(C)c4)c4ccccc34)ccn2)n1` [Example 141, 1-(3-(tert-butyl)-1-(m-tolyl)-1H-pyrazol-5-yl)-3-(4-((2-((6-ethylpyrazin-2-yl)amino)pyridin-4-yl)methoxy)naphthalen-1-yl)urea], the IC50 turned out to be 18 nM in test [1] and 438 nM at p38MAPKγ (MAPK12).
As for `COc1cccc(-n2nc(C(C)(C)C)cc2NC(=O)Nc2ccc(OCc3ccnc(Nc4cnccn4)c3)c3ccccc23)c1` [Example 142, 1-(3-(tert-butyl)-1-(3-methoxyphenyl)-1H-pyrazol-5-yl)-3-(4-((2-(pyrazin-2-ylamino)pyridin-4-yl)methoxy)naphthalen-1-yl) urea], the IC50 in test [1] is 5.7 nM; at p38MAPKγ (MAPK12) it was 78 nM.
`CCc1nc(Nc2cc(COc3ccc(NC(=O)Nc4cc(C(C)(C)C)nn4-c4ccc(C)cc4)c4ccccc34)ccn2)cnc1C` [Example 143, 1-(3-(tert-butyl)-1-(p-tolyl)-1H-pyrazol-5-yl)-3-(4-((2-((6-ethyl-5-methylpyrazin-2-yl)amino)pyridin-4-yl)methoxy)naphthalen-1-yl) urea]: the IC50 in test [1] is 19 nM; on p38MAPKγ (MAPK12), 211 nM.
As to `CCc1cncc(Nc2cc(COc3ccc(NC(=O)Nc4cc(C(C)(C)C)nn4-c4ccc(C)c(C)c4)c4ccccc34)ccn2)n1` [Example 144, 1-(3-(tert-butyl)-1-(3,4-dimethylphenyl)-1H-pyrazol-5-yl)-3-(4-((2-((6-ethylpyrazin-2-yl)amino)pyridin-4-yl)methoxy)naphthalen-1-yl)urea], the results for the IC50 (in test [1]; at p38MAPKγ (MAPK12)) were 63 nM and 518 nM, respectively.
Regarding `Cc1ccc(-n2nc(C(C)(C)C)cc2NC(=O)Nc2ccc(OCc3ccnc(Nc4cncc(C5CC5)n4)c3)c3ccccc23)cc1C` [Example 145, 1-(3-(tert-butyl)-1-(3,4-dimethylphenyl)-1H-pyrazol-5-yl)-3-(4-((2-((6-cyclopropylpyrazin-2-yl)amino)pyridin-4-yl)methoxy)naphthalen-1-yl)urea], the IC50 in test [1] was 43 nM; at p38MAPKγ (MAPK12), 260 nM.
For the molecule `Cc1ccc(-n2nc(C(C)(C)C)cc2NC(=O)Nc2ccc(OCc3ccnc(Nc4cnc(C)c(C)n4)c3)c3ccccc23)cc1C` [Example 146, 1-(3-(tert-butyl)-1-(3,4-dimethylphenyl)-1H-pyrazol-5-yl)-3-(4-((2-((5,6-dimethylpyrazin-2-yl)amino)pyridin-4-yl)methoxy)naphthalen-1-yl)urea], the IC50 amounted to 69 nM in test [1] and 1550 nM on p38MAPKγ (MAPK12).
Consider `Cc1ccc(-n2nc(C(C)(C)C)cc2NC(=O)Nc2ccc(OCc3ccnc(Nc4cnc(CO)cn4)c3)c3ccccc23)cc1C` [Example 147, 1-(3-(tert-butyl)-1-(3,4-dimethylphenyl)-1H-pyrazol-5-yl)-3-(4-((2-((5-(hydroxymethyl)pyrazin-2-yl)amino)pyridin-4-yl)methoxy)naphthalen-1-yl) urea], for which the results for the IC50 (in test [1]; on p38MAPKγ (MAPK12)) were 4.1 nM and 119 nM, respectively.
With `COc1ccc(-n2nc(C(C)(C)C)cc2NC(=O)Nc2ccc(OCc3ccnc(Nc4cnccn4)c3)c3ccccc23)cc1F` [Example 148, 1-(3-(tert-butyl)-1-(3-fluoro-4-methoxyphenyl)-1H-pyrazol-5-yl)-3-(4-((2-(pyrazin-2-ylamino)pyridin-4-yl)methoxy)naphthalen-1-yl)urea], the IC50 is 13 nM in test [1] and 247 nM on p38MAPKγ (MAPK12).
Turning to `CSc1ccc(-n2nc(C(C)(C)C)cc2NC(=O)Nc2ccc(OCc3ccnc(Nc4cnccn4)c3)c3ccccc23)cc1` [Example 149, 1-(3-(tert-butyl)-1-(4-(methylthio)phenyl)-1H-pyrazol-5-yl)-3-(4-((2-(pyrazin-2-ylamino)pyridin-4-yl)methoxy)naphthalen-1-yl)urea], the IC50 in test [1] was 13 nM; at p38MAPKγ (MAPK12), greater than 15900 nM.
In the case of `Cc1ccc(-n2nc(C(C)(C)C)cc2NC(=O)Nc2ccc(OCc3ccnc(Nc4cnc(C)c(C5CC5)n4)c3)c3ccccc23)cc1` [Example 150, 1-(3-(tert-butyl)-1-(p-tolyl)-1H-pyrazol-5-yl)-3-(4-((2-((6-cyclopropyl-5-methyl-pyrazin-2-yl)amino)pyridin-4-yl)methoxy)naphthalen-1-yl)urea], the IC50 in test [1] is 25 nM; at p38MAPKγ (MAPK12), 229 nM.
For `CCc1cnc(Nc2cc(COc3ccc(NC(=O)Nc4cc(C(C)(C)C)nn4-c4ccc(C)c(C)c4)c4ccccc34)ccn2)cn1` [Example 151, 1-(3-(tert-butyl)-1-(3,4-dimethylphenyl)-1H-pyrazol-5-yl)-3-(4-((2-((5-ethylpyrazin-2-yl)amino)pyridin-4-yl)methoxy)naphthalen-1-yl)urea], in that order: 35 nM and 439 nM.
